According to US20240190874A1, “SMALL MOLECULE DEGRADERS OF ANDROGEN RECEPTOR” (THE REGENTS OF THE UNIVERSITY OF MICHIGAN, priority 2021, published 2024):
Like-named read-outs stand apart in the source and are kept apart here.

Key:
Format in all cases: cell-based
[1] = system: VCaP cells; experiment: Cellular potency (IC50) in VCaP cells
Experimental: (§1) Biological Assays. LNCaP and VCaP cells used were purchased from American Type Culture Collection (ATCC). LNCaP were grown in RPMI 1640 (Invitrogen) and VCaP cells were grown in DMEM with Glutamax (Invitrogen). All of the cells were supplemented with 10% fetal bovine serum (Invitrogen) at 37° C. in a humidified 5% CO2 incubator.

[2] = target: T1, AR (Homo sapiens, UniProt P10275); experiment: Degradation of AR in VCaP cells; conditions: VCaP cells; for Dmax: VCaP
T1 construct: Degradation of AR; Cellular potency; host or cells: VCaP cells
T1 sequence (P10275 1-920): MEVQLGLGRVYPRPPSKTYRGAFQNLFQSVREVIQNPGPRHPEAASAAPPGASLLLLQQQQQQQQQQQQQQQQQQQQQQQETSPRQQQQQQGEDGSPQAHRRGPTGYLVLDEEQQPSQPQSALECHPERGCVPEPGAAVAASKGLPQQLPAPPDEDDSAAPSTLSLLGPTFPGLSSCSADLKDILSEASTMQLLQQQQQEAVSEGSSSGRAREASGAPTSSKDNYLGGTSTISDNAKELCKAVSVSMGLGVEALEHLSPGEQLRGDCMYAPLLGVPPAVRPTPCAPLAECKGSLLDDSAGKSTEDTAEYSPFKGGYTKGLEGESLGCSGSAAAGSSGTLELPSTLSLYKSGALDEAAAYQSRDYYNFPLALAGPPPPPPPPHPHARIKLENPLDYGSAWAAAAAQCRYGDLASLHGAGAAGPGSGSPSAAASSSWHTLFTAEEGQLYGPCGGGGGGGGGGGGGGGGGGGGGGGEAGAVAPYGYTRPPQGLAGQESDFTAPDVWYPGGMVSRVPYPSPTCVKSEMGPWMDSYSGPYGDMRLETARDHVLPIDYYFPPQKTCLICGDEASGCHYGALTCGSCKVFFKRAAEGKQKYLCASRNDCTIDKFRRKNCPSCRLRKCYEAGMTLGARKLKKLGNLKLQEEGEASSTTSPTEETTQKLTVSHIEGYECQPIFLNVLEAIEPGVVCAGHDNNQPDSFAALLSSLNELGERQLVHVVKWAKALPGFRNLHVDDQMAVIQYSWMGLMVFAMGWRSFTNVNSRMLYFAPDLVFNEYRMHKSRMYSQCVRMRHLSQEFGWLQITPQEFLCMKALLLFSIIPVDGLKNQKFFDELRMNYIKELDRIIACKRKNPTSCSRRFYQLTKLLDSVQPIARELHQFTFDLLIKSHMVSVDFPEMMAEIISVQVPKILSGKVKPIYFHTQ
Experimental: as §1

[3] = system: LNCaP cells; experiment: Cellular potency (IC50) in LNCaP cells
Experimental: as §1

Row | SMILES | IC50 ([1]; Homo sapiens, VCaP) | DC50 [2] | Dmax [2] | IC50 ([3]; Homo sapiens, LNCaP) | IC50 [1] | IC50 [3]
1 | C[C@H]1CC2(CCN(c3ccc(N4CC(N(C)C5CN(c6ccc7c(c6)C(=O)N(C6CCC(=O)NC6=O)C7=O)C5)C4)cc3)CC2)CN1c1ccc(C#N)c(Cl)c1 (some centres unmarked) [compound 121] | < 100 nM | < 100 nM | 70 to 90% | < 100 nM |  | 
2 | C[C@H]1CC2(CCN(c3ccc(CN4CCN(C5CN(c6ccc7c(c6)C(=O)N(C6CCC(=O)NC6=O)C7=O)C5)CC4)cc3)CC2)CN1c1ccc(C#N)c(Cl)c1 (some centres unmarked) [compound 5] | < 10 nM | < 1 nM | > 90% | < 10 nM |  | 
3 | C=C1CCC(N2C(=O)c3ccc(N4CC(C5CCN(Cc6ccc(N7CCC8(CC7)C[C@H](C)N(c7ccc(C#N)c(Cl)c7)C8)cc6)CC5)C4)cc3C2=O)C(=O)N1 (some centres unmarked) [compound 16] | < 10 nM |  | > 90% | < 10 nM |  | 
4 | C[C@H]1CC2(CCN(c3ccc(CN4CCC(N5CCN(c6ccc7c(c6)C(=O)N(C6CCC(=O)NC6=O)C7=O)CC5)CC4)cn3)CC2)CN1c1ccc(C#N)c(Cl)c1 (some centres unmarked) [compound 166] | < 10 nM | < 10 nM |  | < 100 nM |  | 
5 | C[C@H]1CC2(CCN(c3ccc(OC4CCN(C5CN(c6cc7c(cc6F)C(=O)N(C6CCC(=O)NC6=O)C7=O)C5)CC4)cn3)CC2)CN1c1ccc(C#N)c(Cl)c1 (some centres unmarked) [compound 132] | < 10 nM | < 1 nM | > 90% | < 10 nM |  | 
6 | C[C@H]1CC2(CCN(c3ccc(OC4CN(C5CCN(c6ccc7c(c6)C(=O)N(C6CCC(=O)NC6=O)C7=O)CC5)C4)nn3)CC2)CN1c1ccc(C#N)c(Cl)c1 (some centres unmarked) [compound 74] | < 1000 nM | < 100 nM | 50 to 70% | < 1000 nM |  | 
7 | C[C@H]1CC2(CCN(c3ccc(CN4CC(C5CCN(c6ccc7c(c6)C(=O)N(C6CCC(=O)NC6=O)C7=O)CC5)C4)cn3)CC2)CN1c1ccc(C#N)c(Cl)c1 (some centres unmarked) [compound 178] | < 100 nM | < 10 nM |  | < 100 nM |  | 
8 | C[C@H]1CC2(CCN(c3ccc(CN4CCC(N5CCN(c6ccc7c(c6)C(=O)N(C6CCC(=O)NC6=O)C7=O)CC5)CC4)nn3)CC2)CN1c1ccc(C#N)c(Cl)c1 (some centres unmarked) [compound 202] | < 10 nM | < 1 nM |  | < 10 nM |  | 
9 | C[C@H]1CC2(CCN(c3ccc(OC4CCN(C5CN(c6ccc7c(c6)C(=O)N(C6CCC(=O)NC6=O)C7=O)C5)CC4)cc3)CC2)CN1c1ccc(C#N)c(Cl)c1 (some centres unmarked) [compound 57] | < 10 nM | < 1 nM | > 90% | < 10 nM |  | 
10 | C[C@H]1CC2(CCN(c3ccc(CN4CCN(C5CN(c6ccc7c(c6)C(=O)N(C6CCC(=O)NC6=O)C7=O)C5)CC4)cc3)CC2)CN1c1ccc(C#N)c(Cl)c1 (some centres unmarked) [compound 6] |  | < 1 nM |  |  | < 10 nM | < 10 nM
11 | C[C@H]1CC2(CCN(c3ccc(CN4CCN(C5CN(c6ccc7c(c6)C(=O)N(C6CCC(=O)NC6=O)C7=O)C5)CC4)c(F)c3)CC2)CN1c1ccc(C#N)c(Cl)c1 (some centres unmarked) [compound 8] | < 100 nM | < 10 nM | 70 to 90% | < 100 nM |  | 
12 | C[C@H]1CC2(CCN(c3cnc(CN4CCN(C5CCN(c6ccc7c(c6)C(=O)N(C6CCC(=O)NC6=O)C7=O)CC5)CC4)nc3)CC2)CN1c1ccc(C#N)c(Cl)c1 (some centres unmarked) [compound 171] | < 100 nM | < 10 nM |  | < 10 nM |  | 
13 | C[C@H]1CC2(CCN(c3ccc(N4CCN(CC5CCN(c6ccc7c(c6)C(=O)N(C6CCC(=O)NC6=O)C7=O)CC5)CC4)cn3)CC2)CN1c1ccc(C#N)c(Cl)c1 (some centres unmarked) [compound 32] | < 10 nM | < 1 nM | > 90% | < 10 nM |  | 
14 | C=C1CCC(N2C(=O)c3ccc(N4CCC(C5CCN(Cc6ccc(N7CCC8(CC7)C[C@H](C)N(c7ccc(C#N)c(Cl)c7)C8)cc6)CC5)CC4)cc3C2=O)C(=O)N1 (some centres unmarked) [compound 17] | < 100 nM |  | 70 to 90% | < 100 nM |  | 
15 | C[C@H]1CC2(CCN(c3ccc(N4CCN(C5CN(c6ccc7c(c6)C(=O)N(C6CCC(=O)NC6=O)C7=O)C5)CC4)nc3)CC2)CN1c1ccc(C#N)c(Cl)c1 (some centres unmarked) [compound 36] | < 10 nM | < 1 nM | > 90% | < 10 nM |  | 
16 | C[C@H]1CC2(CCN(c3ccc(S(=O)(=O)C4CCN(C(=O)CN5Cc6cc7c(cc6C5)C(=O)N(C5CCC(=O)NC5=O)C7=O)CC4)cc3)CC2)CN1c1ccc(C#N)c(Cl)c1 (some centres unmarked) [compound 152] | < 100 nM | < 1 nM |  | < 100 nM |  | 
17 | C[C@H]1CC2(CCN(c3ccc(N4CCC(N(C)C5CN(c6ccc7c(c6)C(=O)N(C6CCC(=O)NC6=O)C7=O)C5)CC4)cn3)CC2)CN1c1ccc(C#N)c(Cl)c1 (some centres unmarked) [compound 123] | < 10 nM | < 1 nM | > 90% | < 10 nM |  | 
18 | C[C@H]1CC2(CCN(c3cnc(CN4CCN(C5CN(c6cc7c(cc6F)C(=O)N(C6CCC(=O)NC6=O)C7=O)C5)CC4)nc3)CC2)CN1c1ccc(C#N)c(Cl)c1 (some centres unmarked) [compound 175] | < 10 nM | < 1 nM |  | < 10 nM |  | 
19 | C[C@H]1CC2(CCN(c3ccc(C(=O)N4CCC(N5Cc6cc7c(cc6C5)C(=O)N(C5CCC(=O)NC5=O)C7=O)CC4)s3)CC2)CN1c1ccc(C#N)c(Cl)c1 (some centres unmarked) [compound 138] | < 100 nM | < 10 nM | 70 to 90% | < 100 nM |  | 
20 | C[C@H]1CC2(CCN(c3ccc(CN4CC(C5CCN(c6ccc7c(c6)C(=O)N(C6CCC(=O)NC6=O)C7=O)CC5)C4)nc3)CC2)CN1c1ccc(C#N)c(Cl)c1 (some centres unmarked) [compound 179] | < 100 nM | < 10 nM |  | < 10 nM |  | 
21 | C[C@H]1CC2(CCN(c3ccc(OC4CN(C5CCN(c6ccc7c(c6)C(=O)N(C6CCC(=O)NC6=O)C7=O)CC5)C4)nc3)CC2)CN1c1ccc(C#N)c(Cl)c1 (some centres unmarked) [compound 72] | < 1000 nM | < 100 nM | 50 to 70% | < 1000 nM |  | 
22 | C[C@H]1CC2(CCN(c3ccc(C(=O)C4CCN(C(=O)CN5Cc6cc7c(cc6C5)C(=O)N(C5CCC(=O)NC5=O)C7=O)CC4)cc3)CC2)CN1c1ccc(C#N)c(Cl)c1 (stereo partly drawn) [compound 148, 2-chloro-4-((3S)-8-(4-(1-(2-(6-(2,6-dioxopiperidin-3-yl)-5,7-dioxo-3,5,6,7-tetrahydropyrrolo[3,4-f]isoindol-2(1H)-yl)acetyl)piperidine-4-carbonyl)phenyl)-3-methyl-2,8-diazaspiro[4.5]decan-2-yl)benzonitrile] | < 100 nM |  |  | < 10 nM |  | 
23 | C[C@H]1CC2(CCN(c3ccc(C(=O)C4CCN(CC(=O)N5Cc6cc7c(cc6C5)C(=O)N(C5CCC(=O)NC5=O)C7=O)CC4)cc3)CC2)CN1c1ccc(C#N)c(Cl)c1 (stereo partly drawn) [compound 147, 2-chloro-4-((3S)-8-(4-(1-(2-(6-(2,6-dioxopiperidin-3-yl)-5,7-dioxo-3,5,6,7-tetrahydropyrrolo[3,4-f]isoindol-2(1H)-yl)-2-oxoethyl)piperidine-4-carbonyl)phenyl)-3-methyl-2,8-diazaspiro[4.5]decan-2-yl)benzonitrile] | < 100 nM |  |  | < 10 nM |  | 
24 | C[C@H]1CC2(CCN(c3ccc(CN4CCN(C5CN(c6ccc7c(c6)C(=O)N(C6CCC(=O)NC6=O)C7=O)C5)CC4)nc3)CC2)CN1c1ccc(C#N)c(Cl)c1 (stereo partly drawn) [compound 169, 2-chloro-4-((3S)-8-(6-((4-(1-(2-(2,6-dioxopiperidin-3-yl)-1,3-dioxoisoindolin-5-yl)azetidin-3-yl)piperazin-1-yl)methyl)pyridin-3-yl)-3-methyl-2,8-diazaspiro[4.5]decan-2-yl)benzonitrile] | < 10 nM |  |  | < 10 nM |  | 
